Broadly, the IC50 is the concentration that gives 50% inhibition. Broadly, the EC50 is the concentration giving half of the maximal effect. Usually ED50 stands for the dose at which the effect has come halfway, by size or by number of responders. What is called inhibition in vivo is the drop in the measured response relative to a control, in per cent. As usually defined, the inhibition is how much of the control response was suppressed.

Here are results for 26 compounds from ChEMBL document CHEMBL1131576, “7-Oxo-4,5,6,7-tetrahydro-1H-pyrazolo[3,4-c]pyridines as novel inhibitors of human eosinophil phosphodiesterase” (J Med Chem, 1998).

One data set deals with Phosphodiesterase 4 (Homo sapiens, UniProt P27815+Q08499+Q07343+Q08493). The data set can be described thus: Inhibitory activity on human eosinophil phosphodiesterase 4. Type of data set: protein assay.
Another data set relates to U-937. In words: Arbitary maximal response for cAMP elevation from baseline level was evaluated in Human U-937 cells. The data set is classed as functional, cell-based.
The nature of data set [1]: Compound tested for plasma levels in monkeys dosed at 10 mg/kg, po. The data set is classed as ADME, organism-based. Also on record: dose 10 mg/kg, route oral. Particulars: monkey, in vivo, read-out: Plasma level.
In a further data set the test system is Cavia porcellus. In words: Effect on Aerosolized Antigen Induced Airway Obstruction (AAIAO) in guinea pig after oral dose. Type of data set: functional.
Data set [2] concerns Monkey. The data set can be described thus: Percent Eosinophil inhibition in monkeys at 10 mg/kg oral dose. Type of data set: functional. Particulars: Cercopithecidae, in Primates.
Data set [3] has as its system Monkey. In words: Percent cytokine IL-8 inhibition in monkeys at 10 mg/kg oral dose. The data set is classed as functional. Particulars: Cercopithecidae, in Primates.
Data set [4] has as its system Monkey. In words: Percent cytokine TNF inhibition in monkeys at 10 mg/kg oral dose. Particulars: Cercopithecidae, in Primates. The data set is classed as functional.
For data set [5], the target named is Phosphodiesterase 3 (Homo sapiens) (UniProt Q14432+Q13370). In words: Inhibition of PDE3 from human heart at 100 uM. Type of data set: protein assay.
For data set [6], the target named is Phosphodiesterase 1 (Homo sapiens) (UniProt P54750+Q01064+Q14123). The data set can be described thus: Inhibition of Phosphodiesterase 1 from human cardiac ventricle at 10 uM. The data set is classed as protein assay.
Data set [7] deals with cGMP-specific 3',5'-cyclic phosphodiesterase (Homo sapiens) (UniProt O76074). The data set can be described thus: Inhibition of Phosphodiesterase 5 from human corpus cavernosum at 1 uM.
For data set [8] the target is unchanged. The data set can be described thus: Inhibition of Phosphodiesterase 5 from human corpus cavernosum at 10 uM.
The test system of data set [9] is Monkey. The data set can be described thus: Percent cytokine inhibition in monkeys at 10 mg/kg oral dose. Type of data set: functional. To be noted: Cercopithecidae, in Primates.

Regarding `COc1ccc(N2CCc3c(C)nn(-c4ccc(F)cc4)c3C2=O)cc1`, the IC50 against Phosphodiesterase 4 was determined as 15700 nM.
Take `CCc1nn(C2CCCC2)c2c1CCN(c1cccnc1)C2=O`: the IC50 on Phosphodiesterase 4 worked out at 160 nM. In addition, in the data set on U-937, a half-maximal effect (EC50) was put at 17 nM.
The like results for `CCc1nn(-c2ccc(F)cc2)c2c1CCN(c1ccc(C)cc1)C2=O` were, in that order, 2240 nM and 500 nM.
Take `COc1ccc([C@H](Cc2ccncc2)c2ccccc2)cc1OC1CCCC1` [CDP840]: the IC50 on Phosphodiesterase 4 was determined as 670 nM. The same compound showed a concentration giving a half-maximal response (EC50) in the data set on U-937 of 290 nM.
In turn, `CCc1nn(-c2ccc(F)cc2)c2c1CCN(c1ccccc1C)C2=O` registered an IC50 against Phosphodiesterase 4 of 890 nM.
With `COc1ccc(C2CNC(=O)C2)cc1OC1CCCC1` (stereo not drawn) [ROLIPRAM], in data set [1], the concentration is 910 nM. The same compound displayed an ED50 in the data set on Cavia porcellus of 0.6 mg/kg. The results for the inhibition in vivo at 10 mg/kg in the data set on Monkey [2], in the data set on Monkey [3] and in the data set on Monkey [4] were 49.4%, 84% and 33.4%, respectively. The response with U-937 was half-maximal at 1230 nM (EC50).
With `CCc1nn(C2CCCC2)c2c1CCN(c1ccsc1)C2=O`, the 50% inhibitory concentration (IC50) on Phosphodiesterase 4 turned out to be 660 nM. Besides, the EC50 in the data set with U-937 is 36 nM.
`CCc1nn(-c2ccc(F)cc2)c2c1CCN(c1ccccc1)C2=O` showed an ED50 in the data set on Cavia porcellus of 4.3 mg/kg. Further, the inhibition in [5] was determined as 33%; in data set [6], 2%; in data set [7], 1%; in data set [8] it was 50%. On Phosphodiesterase 4, the half-inhibitory concentration (IC50) was 1640 nM. The compound also gave an EC50 in the data set with U-937 of 880 nM.
On Phosphodiesterase 4, `CCCc1nn(-c2ccc(F)cc2)c2c1CCN(c1ccc(OC)cc1)C2=O` yielded an IC50 of 84900 nM. For the same compound, the response in the data set with U-937 was half-maximal at 11000 nM (EC50).
For the compound `CCc1nn(-c2ccc(F)cc2)c2c1CCN(c1cccc(OC)c1)C2=O`, on Phosphodiesterase 4, the IC50 was found to be 490 nM.
`CCc1nn(C2CCCC2)c2c1CCN(Cc1ccccc1)C2=O`: the IC50 on Phosphodiesterase 4 worked out at 420 nM. In the data set on U-937, the concentration giving a half-maximal response (EC50) was 36 nM.
In the data set on U-937, `COc1ccc([C@]2(C#N)CC[C@@H](C(=O)O)CC2)cc1OC1CCCC1` [CILOMILAST] yielded an EC50 of 3630 nM.
Regarding `CCc1nn(C2CCCC2)c2c1CCN(c1cccc(Cl)c1)C2=O`, the IC50 against Phosphodiesterase 4 came to 39 nM. Moreover, in the data set with U-937, the EC50 came to 41 nM.
For `CCc1nn(C2CCCC2)c2c1CCN(c1cccs1)C2=O` the same measures were 63 nM and 1 nM.
The like results for `CCCCc1nn(-c2ccc(F)cc2)c2c1CCN(c1ccccc1)C2=O` were, in that order, 84700 nM and 13000 nM.
The compound `CCc1nn(C2CCC2)c2c1CCN(c1cccc(OC)c1)C2=O` gave an IC50 on Phosphodiesterase 4 of 150 nM. For the same compound, it took 520 nM to reach a half-maximal effect in the data set with U-937 (EC50).
On to `COc1ccc(C(=O)Nc2c(Cl)cncc2Cl)cc1OC1CCCC1`, for which the EC50 in the data set on U-937 came out at 40 nM.
As for `CCc1nn(C2CCCC2)c2c1CCN(c1cccc(OC)c1)C2=O`, on Phosphodiesterase 4, the IC50 amounted to 34 nM. In the data set on U-937, this compound showed an EC50 of 330 nM.
As to `CCc1nn(C2CCCC2)c2c1CCN(c1ccccc1)C2=O`, the IC50 against Phosphodiesterase 4 was 160 nM. The compound also displayed an EC50 in the data set on U-937 of 70 nM.
The like results for `CCc1nn(C2CCCCC2)c2c1CCN(c1cccc(OC)c1)C2=O` were, in that order, 48 nM and 980 nM.
On to `CCc1nn(C2CCCC2)c2c1CCN(c1ccccn1)C2=O`, for which the half-inhibitory concentration (IC50) at Phosphodiesterase 4 was determined as 1640 nM.
Take `CCc1nn(-c2ccc(F)cc2)c2c1CCN(c1ccccc1OC)C2=O`: the 50% inhibitory concentration (IC50) on Phosphodiesterase 4 is 1080 nM. Moreover, the EC50 in the data set with U-937 is 3210 nM.
Regarding `CCc1nn(C2CCCC2)c2c1CCN(c1ccccc1C)C2=O`, the concentration in [1] came out at 280 nM. In the data set with Cavia porcellus, this compound yielded a median effective dose (ED50) of 2 mg/kg. Moreover, the values for the inhibition in vivo at 10 mg/kg with Monkey [2] and with Monkey [9] were 55.2% and 82.1%, respectively. Also, the inhibition turned out to be 9% in [5], 8% in data set [6], 7% in [7] and 21% in data set [8]. In addition, the IC50 at Phosphodiesterase 4 was 440 nM. The compound further came in with an EC50 in the data set on U-937 of 330 nM.
At Phosphodiesterase 4, `CCc1nn(C2CCS(=O)(=O)C2)c2c1CCN(c1cccc(OC)c1)C2=O` (stereo not drawn) had an IC50 of 460 nM. In the data set with U-937, this compound came in with an EC50 of 5270 nM.
At Phosphodiesterase 4, `CCc1nn(-c2ccc(F)cc2)c2c1CCN(c1cccc(C)c1)C2=O` gave an IC50 of 270 nM. The concentration for a half-maximal effect (EC50) with U-937 worked out at 780 nM.
The like results for `CCc1nn(-c2ccc(F)cc2)c2c1CCN(c1ccc(OC)cc1)C2=O` were, in that order, 6040 nM and 6250 nM.
